Here are results for one molecule from publication PMC5461267, “Membrane Guanylate Cyclase catalytic Subdomain: Structure and Linkage with Calcium Sensors and Bicarbonate” (Frontiers in Molecular Neuroscience, 2017).

Molecules are shown by their SMILES. Where a chain is given by its changes, count along the chain named.

Test [1] concerns the target T1, ROS-GC1 (rod outer segment guanylate cyclase type 1), full-length recombinant (Bos taurus, UniProt P55203, A1013R/D890A).
T1 construct: gene GUCY2D
T1 sequence (P55203 57-1110 D890A/A1013R): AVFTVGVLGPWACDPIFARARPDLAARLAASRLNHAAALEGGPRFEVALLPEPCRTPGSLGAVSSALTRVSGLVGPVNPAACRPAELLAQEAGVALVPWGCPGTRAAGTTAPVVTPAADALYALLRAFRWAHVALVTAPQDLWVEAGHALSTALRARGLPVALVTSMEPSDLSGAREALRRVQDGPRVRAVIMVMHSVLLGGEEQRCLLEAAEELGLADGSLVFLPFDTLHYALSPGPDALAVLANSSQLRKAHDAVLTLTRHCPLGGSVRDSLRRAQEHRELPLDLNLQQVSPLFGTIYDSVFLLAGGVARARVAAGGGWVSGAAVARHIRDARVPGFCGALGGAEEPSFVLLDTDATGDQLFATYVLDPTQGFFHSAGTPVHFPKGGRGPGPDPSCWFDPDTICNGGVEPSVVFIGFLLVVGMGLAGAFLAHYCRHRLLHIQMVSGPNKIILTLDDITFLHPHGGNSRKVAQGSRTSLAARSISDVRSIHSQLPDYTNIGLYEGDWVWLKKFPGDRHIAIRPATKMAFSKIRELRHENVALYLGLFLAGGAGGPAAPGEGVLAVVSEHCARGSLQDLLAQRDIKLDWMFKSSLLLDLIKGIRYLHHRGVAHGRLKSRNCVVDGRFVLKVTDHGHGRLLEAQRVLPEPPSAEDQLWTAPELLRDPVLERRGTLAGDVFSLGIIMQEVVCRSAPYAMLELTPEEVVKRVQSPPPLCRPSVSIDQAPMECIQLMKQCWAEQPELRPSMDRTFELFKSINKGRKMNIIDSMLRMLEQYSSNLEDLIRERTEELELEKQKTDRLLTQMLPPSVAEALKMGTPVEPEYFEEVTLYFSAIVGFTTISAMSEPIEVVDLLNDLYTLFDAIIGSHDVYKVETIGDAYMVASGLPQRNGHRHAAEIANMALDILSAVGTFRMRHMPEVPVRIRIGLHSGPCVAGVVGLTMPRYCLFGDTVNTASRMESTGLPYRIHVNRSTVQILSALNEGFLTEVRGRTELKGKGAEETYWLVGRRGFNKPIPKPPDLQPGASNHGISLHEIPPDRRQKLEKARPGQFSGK
Description: biochemical.

The target in test [2] is T2, ROS-GC1 (rod outer segment guanylate cyclase type 1), full-length recombinant (Bos taurus, UniProt P55203, A1013R/N1009A).
T2 construct: gene GUCY2D
T2 sequence (P55203 57-1110 N1009A/A1013R): T1 sequence (P55203 57-1110 D890A/A1013R) with A834D, N953A
Description: biochemical.

The term EC50 denotes the concentration that produces a half-maximal response. `O=C(O)O` [bicarbonate]: the values for the concentration giving a half-maximal response (EC50) in test [1] and in test [2] were around 30 mM and around 25 mM, respectively.
